# Literature values, collected in patent publication US20190328710A1, “SYNERGISTIC COMPOSITION FOR INHIBITING ADVANCED GLYCATION END PRODUCT CROSSLINKING” (H2 Water Technologies Ltd., priority 2018, published 2019).
# System: patients with cataracts
# Conditions: 96-patient trial, 6-month trial period
compound,measurement,setting,value
NCCC(=O)N[C@@H](Cc1cnc[nH]1)C(=O)O [L-Carnosine],success rate in advanced senile cataracts,advanced senile cataracts,80%
same,success rate in patients with mild to moderate cataracts,mild to moderate cataracts,100%
